Source: patent US20250049033A1, “PESTICIDALLY ACTIVE PYRIDAZINONE COMPOUNDS” (SYNGENTA CROP PROTECTION AG, priority 2021, published 2025)

Key:
Assay type in all cases: in vivo
Chilo suppressalis = assay: Activity against Chilo suppressalis (striped rice stemborer), artificial diet, L2 larvae; conditions: 144 h, application rate 200 ppm, 6 days after infestation, vs untreated, read-out: control in at least one of the three categories (mortality, anti-feedant effect, or growth inhibition)
Method in brief: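 Artificial diet was treated with aqueous test solutions made from 10′000 ppm DMSO stocks, dried, then infested with 6-8 L2 larvae per well. Mortality, anti-feeding effect and growth inhibition were scored versus untreated samples 6 days after infestation; control means any category exceeds untreated.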

Spodoptera littoralis = assay: Activity against Spodoptera littoralis (Egyptian cotton leaf worm), cotton leaf discs, L1 larvae; conditions: foliar, 72 h, application rate 200 ppm, 3 days after infestation, vs untreated, read-out: control in at least one of the three categories (mortality, anti-feedant effect, or growth inhibition)
Method in brief: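 Cotton leaf discs on agar sprayed with aqueous test solutions made from 10′000 ppm DMSO stocks, then infested with five L1 larvae once dry. Mortality, anti-feeding and growth inhibition scored versus untreated samples 3 days after infestation; control counted when any category exceeds untreated.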

Myzus persicae [1] = assay: Activity against Myzus persicae (green peach aphid), intrinsic activity; conditions: 120 h, test rate 12 ppm, 5 days after infestation, sucrose solution through Parafilm
Method in brief: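 Compounds diluted from 10′000 ppm DMSO stocks were mixed with sucrose solution under a stretched Parafilm membrane. Aphid-infested pea seedlings were set on the membrane and the plate was inverted so the aphids fed through it. Mortality was scored 5 days after infestation.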

Euschistus heros = assay: Activity against Euschistus heros (neotropical brown stink bug), soybean leaves, N2 nymphs; conditions: 120 h, application rate 200 ppm, 5 days after infestation, vs untreated, read-out: effect in at least one of the two categories (mortality or growth inhibition)
Protocol: Example B3: Activity Against Euschistus heros (Neotropical Brown Stink Bug)
Soybean leaves on agar in 24-well microtiter plates were sprayed with aqueous test solutions prepared from 10′000 ppm DMSO stock solutions. After drying the leaves were infested with N2 nymphs. The samples were assessed for mortality and growth inhibition in comparison to untreated samples 5 days after infestation.

Diabrotica balteata = assay: Activity against Diabrotica balteata (corn root worm), maize sprouts, L2 larvae; conditions: 96 h, application rate 200 ppm, 4 days after infestation, vs untreated, read-out: control in at least one of the two categories (mortality or growth inhibition)
Protocol: Example B2: Activity Against Diabrotica balteata (Corn Root Worm)
Maize sprouts placed onto an agar layer in 24-well microtiter plates were treated with aqueous test solutions prepared from 10′000 ppm DMSO stock solutions by spraying. After drying, the plates were infested with L2 larvae (6 to 10 per well). The samples were assessed for mortality and growth inhibition in comparison to untreated samples 4 days after infestation.

Tetranychus urticae = assay: Activity against Tetranychus urticae (two-spotted spider mite), feeding/contact activity; conditions: foliar, 192 h
Protocol: Example B9: Activity Against Tetranychus urticae (Two-Spotted Spider Mite). Feeding/Contact Activity
Bean leaf discs on agar in 24-well microtiter plates were sprayed with aqueous test solutions prepared from 10′000 ppm DMSO stock solutions. After drying the leaf discs were infested with a mite population of mixed ages. The samples were assessed for mortality on mixed population (mobile stages) 8 days after infestation.

Myzus persicae [2] = assay: Activity against Myzus persicae (green peach aphid), feeding/contact activity; conditions: foliar, 144 h, application rate 200 ppm, 6 days after infestation, sunflower leaf discs, mixed ages
Protocol: Example B5: Activity Against Myzus persicae (Green Peach Aphid). Feeding/Contact Activity
Sunflower leaf discs were placed onto agar in a 24-well microtiter plate and sprayed with aqueous test solutions prepared from 10′000 ppm DMSO stock solutions. After drying, the leaf discs were infested with an aphid population of mixed ages. The samples were assessed for mortality 6 days after infestation.

Plutella xylostella = assay: Activity against Plutella xylostella (diamond back moth), artificial diet, eggs; conditions: 192 h, application rate 200 ppm, 8 days after infestation, vs untreated, read-out: control in at least one of the two categories (mortality or growth inhibition)
[3] = test system: Frankliniella occidentalis; assay: Activity against Frankliniella occidentalis (western flower thrips), feeding/contact activity; conditions: foliar, 168 h, application rate 200 ppm, 7 days after infestation, sunflower leaf discs, mixed ages
Protocol: Example B4: Activity Against Frankliniella occidentalis (Western Flower Thrips). Feeding/Contact Activity
Sunflower leaf discs were placed on agar in 24-well microtiter plates and sprayed with aqueous test solutions prepared from […] stock solutions. After drying the leaf discs were infested with a Frankliniella population of mixed ages. The samples were assessed for mortality 7 days after infestation.

C[C@@H](c1nccnc1-c1ccc(=O)n(C)n1)N(C)c1ncnc2c(C(F)(F)F)cc(Cl)cc12 (single isomer, unassigned) [P27]
≥ 80%: percent control (mortality, anti-feedant effect or growth inhibition) at 200 ppm (Chilo suppressalis) | percent control (mortality, anti-feedant effect or growth inhibition) at 200 ppm (Spodoptera littoralis) | mortality at 12 ppm (Myzus persicae [1]) | percent effect (mortality or growth inhibition) at 200 ppm (Euschistus heros) | percent control (mortality or growth inhibition) at 200 ppm (Diabrotica balteata) | mortality at 200 ppm (Tetranychus urticae) | mortality at 200 ppm (Myzus persicae [2]) | percent control (mortality or growth inhibition) at 200 ppm (Plutella xylostella)

C[C@H](Nc1nc(=O)[nH]c2c(Cl)cc(C(F)(F)F)cc12)c1ncnn1-c1ccc(=O)n(C)n1 [P5, 8-chloro-4-[[(1S)-1-[2-(1-methyl-6-oxo-pyridazin-3-yl)-1,2,4-triazol-3-yl]ethyl]amino]-6-(trifluoromethyl)-1H-quinazolin-2-one]
≥ 80%: percent effect (mortality or growth inhibition) at 200 ppm (Euschistus heros) | mortality at 200 ppm [3]

C[C@@H](c1ncnn1-c1ccc(=O)n(C)n1)N(C)c1ncnc2c(C(F)(F)F)cc(Cl)cc12 [P6, 6-[5-[(1S)-1-[[6-chloro-8-(trifluoro-methyl)quinazolin-4-yl]-methyl-amino]ethyl]-1,2,4-triazol-1-yl]-2-methyl-pyr-idazin-3-one]
≥ 80%: percent control (mortality, anti-feedant effect or growth inhibition) at 200 ppm (Chilo suppressalis) | percent control (mortality, anti-feedant effect or growth inhibition) at 200 ppm (Spodoptera littoralis) | mortality at 12 ppm (Myzus persicae [1]) | percent effect (mortality or growth inhibition) at 200 ppm (Euschistus heros) | percent control (mortality or growth inhibition) at 200 ppm (Diabrotica balteata) | mortality at 200 ppm (Tetranychus urticae) | mortality at 200 ppm (Myzus persicae [2]) | percent control (mortality or growth inhibition) at 200 ppm (Plutella xylostella)
